From ChEMBL document CHEMBL1201862, “PubChem BioAssay data set” (2004)
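These data come from cells grown in 96-well plates and exposed to compound for 48 hours at five concentrations. GI50 = concentration required for 50% inhibition of growth.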 Calls of active or inactive are those of the source. Rule as the data show it: active = GI50 up to about 1.1 µM and inactive = higher.

Experiments:
Assay in all cases: inhibition of tumour cell growth, NCI panel, 48 h
SNB-75 = system: SNB-75
M14 = system: M14
Malme-3M = system: Malme-3M
KM12 = system: KM12
MDA-MB-231 = system: MDA-MB-231
LOX IMVI = system: LOX IMVI
PC-3 = system: PC-3
786-0 = system: 786-0
SF-295 = system: SF-295
UACC-257 = system: UACC-257
OVCAR-3 = system: OVCAR-3
MCF7 = system: MCF7
CAKI-1 = system: CAKI-1
EKVX = system: EKVX
MDA-MB-435 = system: MDA-MB-435
BT-549 = system: BT-549
HOP-92 = system: HOP-92
A549 = system: A549
HOP-62 = system: HOP-62
SR = system: SR

| Compound | GI50 (SNB-75) | GI50 (M14) | GI50 (Malme-3M) | GI50 (KM12) | GI50 (MDA-MB-231) | GI50 (LOX IMVI) | GI50 (PC-3) | GI50 (786-0) | GI50 (SF-295) | GI50 (UACC-257) | GI50 (OVCAR-3) | GI50 (MCF7) | GI50 (CAKI-1) | GI50 (EKVX) | GI50 (MDA-MB-435) | GI50 (BT-549) | GI50 (HOP-92) | GI50 (A549) | GI50 (HOP-62) | GI50 (SR) |
| --- | --- | --- | --- | --- | --- | --- | --- | --- | --- | --- | --- | --- | --- | --- | --- | --- | --- | --- | --- | --- |
| N#CC1=C(N)OC2=C(CCCc3ccc([N+](=O)[O-])cc32)C1c1ccc(Cl)cc1 (stereo not drawn) | 11.8 µM (inactive) | 16.4 µM (inactive) | 11.3 µM (inactive) | 5.58 µM (inactive) | 7.91 µM (inactive) | 4.6 µM (inactive) | 3.94 µM (inactive) | 4.84 µM (inactive) | 11 µM (inactive) | 6.08 µM (inactive) | 6.34 µM (inactive) | 4.03 µM (inactive) | 4.11 µM (inactive) | 4.43 µM (inactive) | 5.92 µM (inactive) | 17.4 µM (inactive) | 37 µM (inactive) | 6.7 µM (inactive) | 19.7 µM (inactive) | – |
| N#Cc1nc(C#N)n(C(=O)c2ccccc2)c1NC(=O)c1ccccc1 | > 100 µM (inactive) | > 100 µM (inactive) | > 100 µM (inactive) | > 100 µM (inactive) | > 100 µM (inactive) | > 100 µM (inactive) | > 100 µM (inactive) | > 100 µM (inactive) | > 100 µM (inactive) | > 100 µM (inactive) | > 100 µM (inactive) | > 100 µM (inactive) | > 100 µM (inactive) | > 100 µM (inactive) | > 100 µM (inactive) | > 100 µM (inactive) | > 100 µM (inactive) | > 100 µM (inactive) | > 100 µM (inactive) | – |
| CCOC(=O)NN(C(=O)OCC)c1c(C)cc(C)cc1C | > 100 µM (inactive) | > 100 µM (inactive) | > 100 µM (inactive) | > 100 µM (inactive) | > 100 µM (inactive) | 95.3 µM (inactive) | > 100 µM (inactive) | > 100 µM (inactive) | – | > 100 µM (inactive) | > 100 µM (inactive) | > 100 µM (inactive) | > 100 µM (inactive) | > 100 µM (inactive) | > 100 µM (inactive) | > 100 µM (inactive) | – | > 100 µM (inactive) | – | > 100 µM (inactive) |
| O=c1c(-c2ccc(O)cc2)coc2cc(OC3OC(CO)C(O)C(O)C3O)cc(O)c12 (stereo not drawn) | 35.7 µM (inactive) | > 10 µM (inactive) | > 10 µM (inactive) | > 100 µM (inactive) | > 100 µM (inactive) | 79.8 µM (inactive) | 63.8 µM (inactive) | 75.5 µM (inactive) | 92.7 µM (inactive) | > 100 µM (inactive) | > 100 µM (inactive) | > 10 µM (inactive) | 60.4 µM (inactive) | 38.8 µM (inactive) | > 10 µM (inactive) | 58.5 µM (inactive) | – | 60.3 µM (inactive) | > 10 µM (inactive) | 30.3 µM (inactive) |
| O=C1CC[C@@]2(O)[C@H]3Cc4ccc(-c5cccc(O)c5)c5c4[C@@]2(CCN3CC2CC2)[C@H]1O5 | – | 12.1 µM (inactive) | – | 10 µM (inactive) | 22.4 µM (inactive) | 12.9 µM (inactive) | 20.3 µM (inactive) | 18.2 µM (inactive) | 19.8 µM (inactive) | 1.01 µM (active) | 22 µM (inactive) | 16.9 µM (inactive) | 37.6 µM (inactive) | 11.6 µM (inactive) | 14 µM (inactive) | 21.6 µM (inactive) | 25.7 µM (inactive) | 9.55 µM (inactive) | 24.8 µM (inactive) | 26.3 µM (inactive) |
| O=C1Nc2ccccc2C(=O)/C1=C/NC(=S)NC1CCCCC1 | > 100 µM (inactive) | > 100 µM (inactive) | – | > 100 µM (inactive) | > 100 µM (inactive) | > 100 µM (inactive) | > 100 µM (inactive) | > 100 µM (inactive) | > 100 µM (inactive) | > 100 µM (inactive) | > 100 µM (inactive) | > 100 µM (inactive) | > 100 µM (inactive) | > 100 µM (inactive) | > 100 µM (inactive) | > 100 µM (inactive) | > 100 µM (inactive) | > 100 µM (inactive) | > 100 µM (inactive) | – |
| CC1CNC(c2cccc(OCc3ccc(COc4cccc(C5=NC(C)CN5)c4)cc3)c2)=N1 (stereo not drawn) | 22.2 µM (inactive) | > 100 µM (inactive) | 58.5 µM (inactive) | 22.7 µM (inactive) | 42.3 µM (inactive) | 22 µM (inactive) | 28.9 µM (inactive) | 34.1 µM (inactive) | 66.8 µM (inactive) | 12.6 µM (inactive) | 67.9 µM (inactive) | 28.2 µM (inactive) | > 100 µM (inactive) | 45.8 µM (inactive) | 45.5 µM (inactive) | 61.5 µM (inactive) | > 100 µM (inactive) | 40.6 µM (inactive) | 40.6 µM (inactive) | – |
| CCOC(=O)c1cc2cc(C)cc(C(=O)c3ccc([N+](=O)[O-])cc3)c2[nH]1 | 51.6 µM (inactive) | > 100 µM (inactive) | > 100 µM (inactive) | > 100 µM (inactive) | 38.5 µM (inactive) | > 100 µM (inactive) | > 100 µM (inactive) | 86.7 µM (inactive) | > 100 µM (inactive) | > 100 µM (inactive) | > 100 µM (inactive) | > 100 µM (inactive) | > 100 µM (inactive) | > 100 µM (inactive) | > 100 µM (inactive) | > 100 µM (inactive) | 93.8 µM (inactive) | > 100 µM (inactive) | 33.4 µM (inactive) | – |
| CCCNC(=O)N1CC(CN2CCN(c3ccccc3)CC2)O/C1=N/C(=O)Nc1ccccc1 (stereo not drawn) | 76.2 µM (inactive) | 65.9 µM (inactive) | 97.1 µM (inactive) | > 100 µM (inactive) | > 100 µM (inactive) | 67.8 µM (inactive) | 45.5 µM (inactive) | > 100 µM (inactive) | > 100 µM (inactive) | 46.8 µM (inactive) | – | > 100 µM (inactive) | > 100 µM (inactive) | 71.8 µM (inactive) | 84.5 µM (inactive) | > 100 µM (inactive) | 89.3 µM (inactive) | 63.4 µM (inactive) | > 100 µM (inactive) | – |
| O=P(O)(O)c1ccccc1Oc1ccccc1 | 30.3 µM (inactive) | > 100 µM (inactive) | – | > 100 µM (inactive) | > 100 µM (inactive) | > 100 µM (inactive) | > 100 µM (inactive) | > 100 µM (inactive) | > 100 µM (inactive) | > 100 µM (inactive) | > 100 µM (inactive) | > 100 µM (inactive) | > 100 µM (inactive) | > 100 µM (inactive) | > 100 µM (inactive) | > 100 µM (inactive) | > 100 µM (inactive) | > 100 µM (inactive) | > 100 µM (inactive) | – |
| CC(O)CN1c2ccccc2Sc2ccc(Cl)cc21 (stereo not drawn) | > 10 µM (inactive) | > 10 µM (inactive) | > 10 µM (inactive) | > 10 µM (inactive) | > 10 µM (inactive) | > 10 µM (inactive) | > 10 µM (inactive) | > 10 µM (inactive) | > 10 µM (inactive) | > 10 µM (inactive) | > 10 µM (inactive) | > 10 µM (inactive) | > 10 µM (inactive) | > 10 µM (inactive) | > 10 µM (inactive) | > 10 µM (inactive) | > 10 µM (inactive) | > 10 µM (inactive) | > 10 µM (inactive) | – |
| CCCCCCCCCCCCC(=O)NCC(=O)NC(Cc1ccccc1)C(=O)Oc1ccc([N+](=O)[O-])cc1 (stereo not drawn) | 18.5 µM (inactive) | 49.1 µM (inactive) | – | 55.6 µM (inactive) | 48.4 µM (inactive) | 36.2 µM (inactive) | > 100 µM (inactive) | 84.3 µM (inactive) | 50.4 µM (inactive) | > 100 µM (inactive) | > 100 µM (inactive) | 57.5 µM (inactive) | > 100 µM (inactive) | 70.6 µM (inactive) | 65.8 µM (inactive) | 44.9 µM (inactive) | – | > 100 µM (inactive) | > 100 µM (inactive) | 33.7 µM (inactive) |
| CNCC(SC)c1ccc(O)c(O)c1 (stereo not drawn) | 28.8 µM (inactive) | 52.8 µM (inactive) | 17.5 µM (inactive) | > 100 µM (inactive) | 28.2 µM (inactive) | 24.7 µM (inactive) | 69.2 µM (inactive) | 18.6 µM (inactive) | > 100 µM (inactive) | 14.1 µM (inactive) | 14.1 µM (inactive) | 29.2 µM (inactive) | 20.5 µM (inactive) | 15.8 µM (inactive) | 32.1 µM (inactive) | 16.6 µM (inactive) | 20.4 µM (inactive) | > 100 µM (inactive) | 36.4 µM (inactive) | – |
| CCN1c2nc3ccccc3nc2N(CC)c2nc3ccccc3nc21 | > 10 µM (inactive) | 61.9 µM (inactive) | 70.8 µM (inactive) | 39.5 µM (inactive) | 70.8 µM (inactive) | > 100 µM (inactive) | 61.5 µM (inactive) | 46.1 µM (inactive) | 39.7 µM (inactive) | > 10 µM (inactive) | 41.2 µM (inactive) | 96.4 µM (inactive) | 55.8 µM (inactive) | 19.1 µM (inactive) | 42.3 µM (inactive) | 80.5 µM (inactive) | – | 88.7 µM (inactive) | – | 12.8 µM (inactive) |
| c1nncn1C12C3C4C5C3C1C5C42 (stereo not drawn) | > 100 µM (inactive) | – | – | > 100 µM (inactive) | > 100 µM (inactive) | > 100 µM (inactive) | > 100 µM (inactive) | > 100 µM (inactive) | > 100 µM (inactive) | > 100 µM (inactive) | – | > 100 µM (inactive) | – | > 100 µM (inactive) | > 100 µM (inactive) | > 100 µM (inactive) | – | > 100 µM (inactive) | > 100 µM (inactive) | > 100 µM (inactive) |
